Reference: US20080187508A1, “Treatment of Golmerular Basement Membrane Disease Involving Matrix Metalloproteinase-12” (BOYS TOWN NATIONAL RESEARCH HOSPITAL, priority 2004, published 2008)
Entries after “also recorded” stand apart in the source; their conditions may differ. Where a name gives a salt, the structure may show the parent alone.

Test system: Alport mice
Test: immunofluorescence of kidney cryosections (fibronectin, collagen IV α1/α2) of treated Alport mice
Assay type: in vivo, mouse
Details: Alport mice treated from 4 to 7 weeks of age, MMI-270 50 μg/g I.P., BAY 129566 4 mg once daily oral gavage, fibronectin and collagen IV α1/α2 immunostaining
Experimental: The Alport mouse model has been described (Cosgrove et al. (1996) Genes Dev. 10, 2981-2992). The control mice used were normal for both collagen α3(IV) alleles, and are a product of double heterozygote crosses for the Alport mutation. The use of animals in this study was performed in accordance with an approved institutional IACUC protocol. Extreme care was taken to minimize pain and discomfort suffered by the mice. MMP inhibitors were administered between 4 and 7 weeks of age. All drugs were freshly prepared prior to administration. BAY 129566 was emulsified in suspension with 0.5% carboxymethyl cellulose and 4 mg given once a day by oral gavage. MMI-270 was solubilized in 0.9% saline and administered by I.P. injection (50 μg/g body weight) once a day.
Cryosections ([…]) of kidneys from 7-week-old normal and Alport mice were air dried, fixed by immersion in ice cold acetone, and subjected to immunohistochemical staining analysis using antibodies specific for MMP-3 (rabbit polyclonal anti-human MMP-3, a gift from Dr. Z. Gunza-Smith, Miami, Fla., used at 1:200 dilution), MMP-12 (rabbit polyclonal antibody against mouse MMP-12, kindly provided by Yoshikatsu Kaneko, used at 1:100 dilution), type IV collagen α1/2 chains (rabbit polyclonal against mouse type IV collagen, Biodesign, Inc., Saco, Me., used at 1:200 dilution), fibronectin (rabbit polyclonal against human plasma fibronectin, Sigma Chemical Co., St. Louis, Mo., used at 1:200). Anti-CD31 antibodies were directly conjugated to Alexa 568 (Molecular Probes, Eugene Oreg.) and purchased from Immunotech (Marseille, France). […] Images were collected using a Cytovision Ultra Image analysis system interfaced with an Olympus BH-2 fluorescence microscope.
To assess the effect of these two compounds on Alport renal disease progression, Alport mice were administered either MMI 270 or BAY 129566 from 4 to 7 weeks of age. […] Cryosections were analyzed by immunofluorescence microscopy to assess for the degree of glomerular and tubulointerstitial damage using antibodies specific for collagen IV α1 and α2 chains, and fibronectin.

Compound: COc1ccc(S(=O)(=O)N(Cc2cccnc2)[C@@H](C(=O)NO)C(C)C)cc1 [MMI 270, N-hydroxy-2(R)-[(4-methoxysulfonyl)(3-picolyl)amino]-3-methylbutaneamide hydrochloride monohydrate]
- glomerular and tubulointerstitial (renal) disease progression (hydrochloride monohydrate): very little glomerular or interstitial disease; also recorded: remarkable improvement
- glomerular and tubulointerstitial (renal) disease progression (listed as NMI 270, hydrochloride monohydrate): significantly reduced interstitial disease
